Experimental data taken from ChEMBL document CHEMBL1687857, “Stereumins H-J, stereumane-type sesquiterpenes from the fungus Stereum sp” (J Nat Prod, 2011).
Activity calls are given as the source filed them.

Key:
Escherichia coli = assay: Antimicrobial activity against Escherichia coli at 50 ug/ml by disk diffusion method; assay type: functional, organism-based
Staphylococcus aureus = assay: Antimicrobial activity against Staphylococcus aureus at 50 ug/ml by disk diffusion method; assay type: functional, organism-based
Candida albicans = assay: Antimicrobial activity against Candida albicans at 50 ug/ml by disk diffusion method; assay type: functional, organism-based
Panagrellus redivivus = assay: Antinematodal activity against Panagrellus redivivus at 100 ug/ml by disk diffusion method; assay type: functional, organism-based
HL-60 = assay: Cytotoxicity against human HL60 cells at 40 uM by MTT assay; assay type: functional, cell-based
SMMC-7721 = assay: Cytotoxicity against human SMMC7721 cells at 40 uM by MTT assay; assay type: functional, cell-based
A549 = assay: Cytotoxicity against human A549 cells at 40 uM by MTT assay; assay type: functional, cell-based

C=C1[C@H](O)[C@@H]2[C@H]3[C@H](CC[C@]2(C)O)[C@@H](C)CC(=O)[C@@]13O
inactive: inhibition (Escherichia coli) | inhibition (Staphylococcus aureus) | inhibition (Candida albicans) | Activity (Panagrellus redivivus) | Activity (HL-60) | Activity (SMMC-7721) | Activity (A549)

C=C1[C@@H](O)[C@@H]2[C@H]3[C@H](CC[C@@]2(C)O)[C@@H](C)CC(=O)[C@@]13O
inactive: inhibition (Escherichia coli) | inhibition (Staphylococcus aureus) | inhibition (Candida albicans) | Activity (Panagrellus redivivus) | Activity (HL-60) | Activity (SMMC-7721) | Activity (A549)

C=C1[C@H](O)[C@@H]2[C@H]3[C@H](CC[C@]2(C)O)[C@@H](C)C[C@H](O)[C@@]13O
inactive: inhibition (Escherichia coli) | inhibition (Staphylococcus aureus) | inhibition (Candida albicans) | Activity (Panagrellus redivivus) | Activity (HL-60) | Activity (SMMC-7721) | Activity (A549)
